Laboratory results as given in patent US7371207B2 (Wyeth, priority 2002, dated 2008).

How the values were obtained:
[1] = system: gene expression in the kidney of mice expressing ΔAF1-ERα; experiment: Real-time PCR of kidney gene expression in ERαERβKO or ERαKO mice expressing ΔAF1-ERα
Method: Kidney gene expression values were determined by real-time PCR for each individual animal and normalized for GAPDH expression. The mean expression level in vehicle-treated WT mice was defined as 1 for each gene. *p<0.01 for comparison to vehicle treated animals.
One week later, the animals were ovariectomized. Commencing the day after ovariectomy, each animal received a daily subcutaneous treatment with vehicle (50% DMSO, 50% phosphate buffered saline) or vehicle containing treatments for six weeks. Each group consisted of six or seven animals. Approximately 2 hours following the final treatment, the animals were euthanized with selected tissues frozen in liquid nitrogen for RNA analysis or on dry ice for histology.

ERα = ERα (Homo sapiens, UniProt P03372); settings: cited from earlier work
[2] = system: gene expression in the kidney; experiment: Real-time PCR of kidney gene expression in ovariectomized WT mice; settings: 10 μg/kg/day E2 or 5 mg/kg/day tamoxifen, 6 weeks, FIG. 8
Text: FIGS. 5A-5B show a series of graphs showing expression levels for various genes. […] (B) Uterine wet weights (mg) and gene expression values (mean±SEM).
FIGS. 6A-6D show a series of bar graphs depicting relative expression levels for various genes.
(§1) One week later, the animals were ovariectomized.

[3] = system: gene expression in the kidney; experiment: GeneChip microarray survey of E2 regulated gene expression, kidney
Method: (§2) FIG. 1 depicts a pattern analysis generated by a GeneChip microarray analysis. […] Two hours following the final dose, the mice were euthanized and 13 tissues removed for RNA preparation. Two independent studies were performed, with total RNA pooled from two groups of three animals for each condition. Gene expression was quantified by GeneChip microarrays using murine U74 sub A arrays. Data were analyzed for patterns indicating either ERα or ERβ dependent regulation as shown. […] The number of genes in each tissue that matched the theoretical induction (↑) or repression (↓) patterns for ERα or ERβ are indicated.
FIGS. 2A-2C show a series of bar graphs showing gene expression levels of known genes regulated in the kidney in an ERα pattern. […] Expression was measured in two independent sets of animals, with two groups of animals for each treatment in each study. A gene name abbreviation is shown above each graph, with the corresponding Unigene designation shown below.
as §1
(§3) GeneChip—Total RNA was prepared separately from each individual organ by using Trizol (Invitrogen) followed by subsequent repurification on Rneasy columns (Qiagen). In general, two pools of RNA were created using equal amounts of RNA from three mice. For small organs such as pituitary, an equal amount of RNA from six animals was combined.
(§4) Target Preparation and Array Hybridization—Total RNA was used to generate biotin labeled cRNA target as described (8) which was hybridized to the murine MG_U74Av2 probe arrays (Affymetrix, Santa Clara, Calif.) for 16 h at 45° C. Eleven biotin-labeled cRNAs at defined concentration were spiked into each hybridization and used to convert average difference values to frequencies expressed as parts per million.
(§5) The resulting data set was queried for genes whose regulation was dependent on ERα or ERβ.

[4] = system: gene expression in the uterus; experiment: GeneChip microarray survey of E2 regulated gene expression, uterus
Method: as §2, §1, §3, §4, §5

[5] = system: gene expression in the pituitary; experiment: GeneChip microarray survey of E2 regulated gene expression, pituitary; type: in vivo, mouse; settings: mouse, in vivo
Text: as §1

[6] = system: gene expression in the kidney; experiment: In situ hybridization of kidney, ovariectomized mice; type: in vivo, mouse; settings: regulated only in tubule epithelial cells
Text: (§6) No signal was detected with the corresponding sense probes.
(§7) Generally, in situ hybridization comprises the following major steps: (1) fixation of tissue or biological structure to be analyzed; (2) prehybridization treatment of the biological structure to increase accessibility of target nucleic acid, and to reduce nonspecific binding; (3) hybridization of the mixture of nucleic acids to the nucleic acid in the biological structure or tissue; (4) post-hybridization washes to remove nucleic acid fragments not bound in the hybridization, and (5) detection of the hybridized nucleic acid fragments. The probes used in such applications are typically labeled, for example, with radioisotopes or fluorescent reporters. Preferred probes are sufficiently long, for example, from about 50, 100, or 200 nucleotides to about 1000 or more nucleotides, to enable specific hybridization with the target nucleic acid(s) under stringent conditions.
as §1

[7] = system: gene expression in the kidney; experiment: In situ hybridization of kidney, ovariectomized rats; type: in vivo, rat
Text: as §6, §7, §1

[8] = 10 μg/kg/day E2 or 5 mg/kg/day tamoxifen, 6 weeks, FIG. 8
[9] = Table II: mouse uterus and human endometrium
[10] = WT versus ΔAF1-ERα mice, E2 versus tamoxifen

Sequence of ERα (P03372 whole entry): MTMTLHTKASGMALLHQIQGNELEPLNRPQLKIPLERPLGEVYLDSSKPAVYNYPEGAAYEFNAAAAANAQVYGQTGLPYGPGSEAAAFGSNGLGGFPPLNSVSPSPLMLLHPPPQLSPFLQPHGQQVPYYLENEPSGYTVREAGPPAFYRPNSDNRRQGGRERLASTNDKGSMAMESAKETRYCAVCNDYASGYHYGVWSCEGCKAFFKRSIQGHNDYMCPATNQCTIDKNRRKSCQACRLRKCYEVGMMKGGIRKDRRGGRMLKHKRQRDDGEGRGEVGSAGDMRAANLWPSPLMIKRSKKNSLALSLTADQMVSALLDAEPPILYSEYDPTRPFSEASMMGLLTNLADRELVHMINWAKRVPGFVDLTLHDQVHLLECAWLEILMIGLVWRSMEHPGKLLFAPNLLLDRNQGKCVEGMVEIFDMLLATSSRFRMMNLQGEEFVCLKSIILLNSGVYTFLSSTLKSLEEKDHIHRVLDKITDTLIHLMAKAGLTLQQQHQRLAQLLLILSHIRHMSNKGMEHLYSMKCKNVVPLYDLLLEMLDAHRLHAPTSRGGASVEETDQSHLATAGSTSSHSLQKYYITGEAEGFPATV

C[C@]12CC[C@@H]3c4ccc(O)cc4C[C@@H](CCCCCCCCC[S+]([O-])CCCC(F)(F)C(F)(F)F)[C@H]3[C@@H]1CC[C@@H]2O (some centres unmarked) [ICI182780]
effect on E2 induction of CYP7B1 in kidney ([1]; 10 μg/kg/day E2 + 5 mg/kg/day ICI182780, 6 weeks, FIG. 8): blocked
effect on E2 regulation of gene expression in the kidney ([1]; 10 μg/kg/day E2 + 5 mg/kg/day ICI182780, FIG. 8): complete antagonist

CCCc1c(-c2ccc(O)cc2)nn(-c2ccc(O)cc2)c1-c1ccc(O)cc1 [PPT, 4-propyl-1,3,5-Tris(4-hydroxy-phenyl)pyrazole]
activation of ERα versus ERβ (ERα): exclusively activates ERα but not ERβ

CC/C(=C(\c1ccccc1)c1ccc(OCCN(C)C)cc1)c1ccccc1 [tamoxifen]
BCAT1 expression in kidney, WT mice [2]: induced
CYP7B1 expression in kidney, WT mice [2]: induced by E2 but not by tamoxifen
TF expression in kidney, WT mice [2]: induced
BCAT1 expression in kidney, ERαERβKO mice [1, 8]: did not
TF expression in kidney, ERαERβKO mice (express only ΔAF1-ERα) [1, 8]: Neither compound could induce TF expression

estrogen
ABCC3 expression in kidney ([3]; mRNA level): induced expression
NTT73 expression in kidney ([3]; mRNA level): induced expression
BCAT1 expression in kidney ([3]; mouse, in vivo): induced expression
BHMT expression in kidney ([3]; mouse, in vivo): repressed expression
SAHH expression in kidney ([3]; mouse, in vivo): repressed expression
STAT5A expression in kidney ([3]; mouse, in vivo): induced expression
Tissue Factor expression in kidney ([3]; mouse, in vivo): induced expression
BHMT expression in kidney ([3]; mouse, in vivo, listed as estrogens): A repression by estrogens
Deiodinase, type II expression in uterus [4, 9]: induced
IGFBP4 expression in uterus [4, 9]: induced
Procollagen, type I, alpha 1 expression in uterus [4, 9]: induced
SFRP4 expression in uterus [4, 9]: induced
Scavenger receptor expression in uterus [4, 9]: repressed
vimentin expression in uterus [4, 9]: induced
AI121305 expression in uterus ([4]; mouse, in vivo): induced
ALOX15 expression in uterus ([4]; mouse, in vivo): induced
BCAT1 expression in uterus ([4]; mouse, in vivo): induced
C3 expression in uterus ([4]; mouse, in vivo): induced
CEBPb expression in uterus ([4]; mouse, in vivo): induced
EGR1 expression in uterus ([4]; mouse, in vivo): induced
FOS expression in uterus ([4]; mouse, in vivo): induced
MAP2k1 expression in uterus ([4]; mouse, in vivo): induced
SiAMOX expression in uterus ([4]; mouse, in vivo): induced
FSHb expression in pituitary [5]: repressed
GADD45G expression in pituitary [5]: induced
STAT5B expression in pituitary [5]: induced
FSHb expression in pituitary ([5]; listed as estrogens): Repressed by estrogens
GADD45G expression in pituitary ([5]; listed as estrogens): Induced by estrogens
STAT5B expression in pituitary ([5]; listed as estrogens): Induced by estrogens
GADD45G expression in kidney [6]: induced expression
regulation of STAT5A and GADD45G in rat kidney ([7]; 20 μg/kg/day E2 six weeks, FIG. 4): occurred in rat kidney juxtamedullary region
GADD45G regulation in kidney across species ([7]; mouse and rat): Regulated in multiple species (mouse and rat)
STAT5A regulation in kidney across species ([7]; mouse and rat): Regulated in multiple species (mouse and rat)
mechanism of induction of BCAT1 in kidney (ERα AF1 or AF2) [1, 10]: Mechanism is ERα AF1 + AF2 dependent
mechanism of induction of CYP7B1 in kidney (ERα AF1 or AF2) [1, 10]: Mechanism is ERα AF2 dependent
mechanism of induction of TF (Tissue Factor) in kidney (ERα AF1 or AF2) [1, 10]: Mechanism is ERα AF1 dependent
